How the values were obtained:
TYK2 Pseudokinase (JH2) [1] = biological target: T1, TYK2 Pseudokinase (JH2) (Homo sapiens, UniProt P29597); assay: HEK-Blue IL-23 reporter assay (STAT3-inducible SEAP) for profiling TYK2 pseudokinase (JH2) inhibition; type: cell-based; conditions: HEK-Blue IL-23 cells, 10 ng/mL human recombinant IL-23, SEAP readout; read-out: IL23
T1 construct: HEK-Blue™ IL-23 and IFNα/0 cells with a stably-integrated cytokine receptor and STAT3 or STAT1; endogenous in cells; host or cells: HEK-Blue IL-23 and HEK-Blue IFNα/β reporter cells
T1 sequence (P29597 whole entry): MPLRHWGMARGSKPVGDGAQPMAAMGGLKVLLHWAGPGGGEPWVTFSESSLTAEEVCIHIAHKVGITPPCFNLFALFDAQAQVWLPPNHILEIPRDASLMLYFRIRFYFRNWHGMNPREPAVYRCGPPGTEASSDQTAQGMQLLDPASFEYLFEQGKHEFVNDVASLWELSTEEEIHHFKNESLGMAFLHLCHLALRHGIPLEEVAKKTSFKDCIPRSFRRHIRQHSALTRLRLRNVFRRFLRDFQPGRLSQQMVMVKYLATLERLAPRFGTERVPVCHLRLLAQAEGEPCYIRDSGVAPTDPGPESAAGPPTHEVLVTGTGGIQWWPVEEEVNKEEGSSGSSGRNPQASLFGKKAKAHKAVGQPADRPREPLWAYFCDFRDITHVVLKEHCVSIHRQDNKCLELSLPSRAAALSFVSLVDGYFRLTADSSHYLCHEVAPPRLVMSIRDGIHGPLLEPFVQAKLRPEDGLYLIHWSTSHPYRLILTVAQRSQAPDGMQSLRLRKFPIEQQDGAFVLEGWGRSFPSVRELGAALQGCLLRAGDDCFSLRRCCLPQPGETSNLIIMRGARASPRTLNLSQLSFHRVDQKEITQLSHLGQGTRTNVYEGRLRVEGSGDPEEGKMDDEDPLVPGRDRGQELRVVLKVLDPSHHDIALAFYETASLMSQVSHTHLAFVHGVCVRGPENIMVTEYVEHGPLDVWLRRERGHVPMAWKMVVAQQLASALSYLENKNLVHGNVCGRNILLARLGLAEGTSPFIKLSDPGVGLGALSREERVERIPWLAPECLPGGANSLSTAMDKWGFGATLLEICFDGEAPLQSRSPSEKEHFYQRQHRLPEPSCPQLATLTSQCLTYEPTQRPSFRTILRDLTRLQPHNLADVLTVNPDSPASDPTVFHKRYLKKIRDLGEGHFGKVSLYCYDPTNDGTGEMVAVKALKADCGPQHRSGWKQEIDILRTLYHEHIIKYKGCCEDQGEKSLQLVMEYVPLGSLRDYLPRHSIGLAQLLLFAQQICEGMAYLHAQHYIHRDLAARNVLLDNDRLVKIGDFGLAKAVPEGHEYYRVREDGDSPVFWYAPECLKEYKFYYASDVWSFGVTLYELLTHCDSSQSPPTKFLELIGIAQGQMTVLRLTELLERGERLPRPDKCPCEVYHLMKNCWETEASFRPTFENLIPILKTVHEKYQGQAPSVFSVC
Experimental: (§1) HEK-Blue™ IL-23 and IFNα/0 cells with a stably-integrated cytokine receptor and STAT3 or STAT1 express STAT-inducible secreted embryonic alkaline phosphatase (SEAP) reporter gene upon cytokine stimulation. These cells are plated in DMEM (Gibco) containing 10% heat-inactivated FBS (Gibco) and 100 U/mL PenStrep (Gibco) at 37° C. under 5% CO2 conditions for 20-22 hours. The cells are then pretreated with serially diluted test compounds for 60 min prior to stimulation with either 10 ng/mL human recombinant IL-23 (Miltenyl Biotech) or 1 ng/mL human recombinant IFNα (InvivoGen) for 22-24 hours for IL-23 or 16-18 h for IFNα. SEAP induction is measured using the QUANTI Blue™ Solution (InvivoGen) according to the manufacturer's instructions.

TYK2 Pseudokinase (JH2) [2] = biological target: T1, TYK2 Pseudokinase (JH2); assay: HEK-Blue IFNα/β reporter assay (STAT1-inducible SEAP) for profiling TYK2 pseudokinase (JH2) inhibition; type: cell-based; conditions: HEK-Blue IFNα/β cells, 1 ng/mL human recombinant IFNα, SEAP readout
Experimental: as §1

JAK1-JH1 = biological target: T2, JAK1-JH1 (Homo sapiens, UniProt P23458); assay: HTRF-based selectivity assay, JAK1 catalytic domain; type: biochemical; conditions: kinase domain (JH1), 21.43 μM ATP
T2 construct: recombinant purified His or GST-tagged catalytic domain for each enzyme; made in house
T2 sequence (P23458 875-1153 limits assumed): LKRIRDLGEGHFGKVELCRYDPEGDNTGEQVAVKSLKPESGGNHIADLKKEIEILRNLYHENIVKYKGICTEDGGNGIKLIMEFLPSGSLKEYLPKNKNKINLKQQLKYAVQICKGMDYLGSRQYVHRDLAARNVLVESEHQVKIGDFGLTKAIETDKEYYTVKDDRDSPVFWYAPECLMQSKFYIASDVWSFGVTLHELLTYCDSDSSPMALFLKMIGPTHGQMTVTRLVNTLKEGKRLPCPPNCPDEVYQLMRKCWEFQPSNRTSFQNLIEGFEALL
Experimental: The ability of compounds to inhibit the activity of JAK1, JAK2, JAK3 and TYK2 is measured using a recombinant purified His or GST-tagged catalytic domain for each enzyme (JAK1, JAK2 and TYK2 are generated in-house; JAK3 was purchased from Carna biosciences, Cat #08-046) in an HTRF format biochemical assay. The reactions employs a commercial peptide substrate from Cisbio (Cat #62TK0PEC). The basic assay protocol is as follows: first, 2.5 μL of diluted compounds (4×) in DMSO are dispensed into a 384-well Optiplate. Next, 2.5 μL of enzyme (final concentrations for enzymes are: TYK2- 700 ng/mL, JAK1- 80.6 ng/mL, JAK2- 2.1 ng/mL and JAK3- 171.8 ng/mL) is added and incubated at RT for 5-20 min. Finally, 5 μl of mixture of 2×ATP [Final concentration 20 μM for TYK2, 21.43 μM for JAK1, 14.7 μM for JAK2 and 2.12 μM for JAK3]^+2× Substrate [Final concentration 217 nM for TYK2, 454.7 nM for JAK1, 200 nM for JAK2 and 257.4 nM for JAK3] is added to 384 well Optiplate. Composition of Kinase assay buffer used in the assay is as follows: HEPES 50 mM, EGTA 1 mM, MgCl2 10 mM, DTT 2 mM, Tween-20 0.01% and water. Then the plates are shaken and then incubated at 26.5° C. for 60 min.

IL-2 = assay: HEK-Blue IL-2 reporter assay (STAT5-inducible SEAP) for determining selectivity; type: cell-based; conditions: HEK-Blue IL-2 reporter cells, 4 ng/mL human recombinant IL-2, SEAP readout
Experimental: (§2) HEK-Blue™ IL-2 and IFNγ reporter cells with a stably-integrated cytokine receptor and STAT5 or STAT1 express STAT-inducible secreted embryonic alkaline phosphatase (SEAP) reporter gene upon cytokine stimulation. These cells were plated in DMEM (Gibco) containing 10% heat-inactivated FBS (Gibco) and 100 U/mL PenStrep (Gibco) at 37° C. under 5% CO2 conditions for 20-22 hours. The cells were then pretreated with serially diluted test compounds for 60 min prior to stimulation with either 4 ng/mL human recombinant TL-2 (Miltenyl Biotech) or 50 ng/mL human recombinant IFNγ (InvivoGen) for 24 hours. SEAP induction was measured using the QUANTI-Blue™ Solution (InvivoGen) according to the manufacturer's instructions.

IFN-γ = assay: HEK-Blue IFNγ reporter assay (STAT1-inducible SEAP) for determining selectivity; type: cell-based; conditions: HEK-Blue IFNγ reporter cells, 50 ng/mL human recombinant IFNγ, SEAP readout
Experimental: as §2

SMILES | IC50 (TYK2 Pseudokinase (JH2) [1]) [µM] | IC50 (TYK2 Pseudokinase (JH2) [2]) [µM] | IC50 (JAK1-JH1) [µM] | IC50 (IL-2) [µM] | IC50 (IFN-γ) [µM]
CONC(=O)c1cnc(NC(=O)C2CC2)cc1Nc1cccc2c1N(C)[C@@H](C)c1nc(C)nn1-2 [Compound 8, (S)-6-(cyclopropanecarboxamido)-N-methoxy-4-((2,4,5-trimethyl-4,5-dihydro-[1,2,4]triazolo[1,5-a]quinoxalin-6-yl)amino)nicotinamide] | < 0.03 | 0.03 to 0.3 | – | – | –
CONC(=O)c1nnc(Nc2cc(C)nc(C)n2)cc1Nc1cccc2c1N(C)[C@@H](C)c1nc(C)nn1-2 [Compound 12, (S)-6-((2,6-dimethylpyrimidin-4-yl)amino)-N-methoxy-4-((2,4,5-trimethyl-4,5-dihydro-[1,2,4]triazolo[1,5-a]quinoxalin-6-yl)amino)pyridazine-3-carboxamide] | < 0.03 | < 0.03 | – | – | –
CNC(=O)c1cnc2[nH]ccc2c1Nc1cccc2c1N(C)Cc1cn(C)nc1-2 [Compound 7, 4-((2,5-dimethyl-4,5-dihydro-2H-pyrazolo[4,3-c]quinolin-6-yl)amino)-N-methyl-1H-pyrrolo[2,3-b]pyridine-5-carboxamide] | > 1 | > 1 | – | – | –
CN1Cc2cn(C)nc2-c2cccc(Nc3cc(NC(=O)C4CC4)nc4[nH]n(C)c(=O)c34)c21 [Compound 2, N-(4-((2,5-dimethyl-4,5-dihydro-2H-pyrazolo[4,3-c]quinolin-6-yl)amino)-2-methyl-3-oxo-2,3-dihydro-1H-pyrazolo[3,4-b]pyridin-6-yl)cyclopropanecarboxamide] | < 0.03 | < 0.03 | > 1 | – | –
CONC(=O)c1nnc(NC(=O)C2CC2)cc1Nc1cccc2c1N(C)[C@@H](C)c1nc(C)nn1-2 [Compound 10, (S)-6-(cyclopropanecarboxamido)-N-methoxy-4-((2,4,5-trimethyl-4,5-dihydro-[1,2,4]triazolo[1,5-a]quinoxalin-6-yl)amino)pyridazine-3-carboxamide] | < 0.03 | 0.03 to 0.3 | – | – | –
Cc1nc2n(n1)-c1cccc(Nc3cc(NC(=O)C4CC4)nc4[nH]n(C)c(=O)c34)c1N(C)[C@H]2C [Compound 3, (S)—N-(2-methyl-3-oxo-4-((2,4,5-trimethyl-4,5-dihydro-[1,2,4]triazolo[1,5-a]quinoxalin-6-yl)amino)-2,3-dihydro-1H-pyrazolo[3,4-b]pyridin-6-yl)cyclopropanecarboxamide] | < 0.03 | 0.03 to 0.3 | – | > 1 | > 1
CCONC(=O)c1nnc(NC(=O)C2CC2)cc1Nc1nccc2c1N(C)[C@@H](C)c1nn(C)nc1-2 (single isomer, unassigned) [Compound 16] | < 0.03 | < 0.03 | – | – | –
CCONC(=O)c1nnc(NC(=O)C2CC2)cc1Nc1cccc2c1N(C)[C@@H](C)c1nc(C)nn1-2 [Compound 13, (S)-6-(cyclopropanecarboxamido)-N-ethoxy-4-((2,4,5-trimethyl-4,5-dihydro-[1,2,4]triazolo[1,5-a]quinoxalin-6-yl)amino)pyridazine-3-carboxamide] | < 0.03 | 0.03 to 0.3 | – | – | –
CCONC(=O)c1nnc(Nc2cc(C)nc(C)n2)cc1Nc1cccc2c1N(C)[C@@H](C)c1nc(C)nn1-2 [Compound 14, (S)-6-((2,6-dimethylpyrimidin-4-yl)amino)-N-ethoxy-4-((2,4,5-trimethyl-4,5-dihydro-[1,2,4]triazolo[1,5-a]quinoxalin-6-yl)amino)pyridazine-3-carboxamide] | < 0.03 | < 0.03 | – | – | –
CONC(=O)c1nnc(Nc2ccc(F)cn2)cc1Nc1cccc2c1N(C)[C@@H](C)c1nc(C)nn1-2 [Compound 11, (S)-6-((5-fluoropyridin-2-yl)amino)-N-methoxy-4-((2,4,5-trimethyl-4,5-dihydro-[1,2,4]triazolo[1,5-a]quinoxalin-6-yl)amino)pyridazine-3-carboxamide] | < 0.03 | < 0.03 | – | – | –
CCONC(=O)c1cnc(NC(=O)C2CC2)cc1Nc1cccc2c1N(C)[C@@H](C)c1nc(C)nn1-2 [Compound 9, (S)-6-(cyclopropanecarboxamido)-N-ethoxy-4-((2,4,5-trimethyl-4,5-dihydro-[1,2,4]triazolo[1,5-a]quinoxalin-6-yl)amino)nicotinamide] | < 0.03 | < 0.03 | – | – | –
CNC(=O)c1cnc2[nH]ccc2c1Nc1cccc2c1N(C)CCn1cnnc1-2 [Compound 6, N-methyl-4-((7-methyl-6,7-dihydro-5H-benzo[f][1,2,4]triazolo[4,3-d][1,4]diazepin-8-yl)amino)-1H-pyrrolo[2,3-b]pyridine-5-carboxamide] | > 1 | > 1 | – | – | –
[2H]C([2H])([2H])NC(=O)c1c(Nc2cccc3c2N(C)[C@@H](C)c2nc(C)nn2-3)cc(NC(=O)C2CC2)nc1N [Compound 4, (S)-2-amino-6-(cyclopropanecarboxamido)-N-(methyl-d3)-4-((2,4,5-trimethyl-4,5-dihydro-[1,2,4]triazolo[1,5-a]quinoxalin-6-yl)amino)nicotinamide] | > 1 | > 1 | – | – | –
Cn1cc2c(n1)-c1cccc(Nc3cc(NC(=O)C4CC4)nc4[nH]n(C)c(=O)c34)c1OC2 [Compound 1, N-(2-methyl-4-((2-methyl-2,4-dihydrochromeno[4,3-c]pyrazol-6-yl)amino)-3-oxo-2,3-dihydro-1H-pyrazolo[3,4-b]pyridin-6-yl)cyclopropanecarboxamide] | 0.3 to 1 | – | > 1 | – | –
CCONC(=O)c1nnc(Nc2ccc(F)cn2)cc1Nc1cccc2c1N(C)[C@@H](C)c1nc(C)nn1-2 [Compound 15, (S)—N-ethoxy-6-((5-fluoropyridin-2-yl)amino)-4-((2,4,5-trimethyl-4,5-dihydro-[1,2,4]triazolo[1,5-a]quinoxalin-6-yl)amino)pyridazine-3-carboxamide] | < 0.03 | < 0.03 | – | – | –

From US20260055121A1, “TYK2 INHIBITORS AND USES THEREOF” (Sudo Biosciences Limited, priority 2022, published 2026)
